Assay results: patent US7091340B2, “Polymorphs” (Boehringer Ingelheim Pharmaceuticals, Inc., priority 2003, dated 2006)

How the values were obtained:
[1] = Microscopical solution phase transformation experiments; format: physicochemical; settings: room temperature; Forms IV and VI compared
[2] = Solubility vs. temperature profile experiments; format: physicochemical; settings: within the temperature range of the experiment

## Cc1ccc(-n2nc(C(C)(C)C)cc2NC(=O)Nc2ccc(OCCN3CCOCC3)c3ccccc23)cc1 [Form VI, 1-(5-tert-butyl-2-p-tolyl-2H-pyrazol-3-yl)-3-[4-(2-morpholin-4-yl-ethoxy)-naphthalen-1-yl]-urea]
[1]
  thermodynamic stability relative to Form IV: more thermodynamically stable at room temperature relative to Form IV
[2]
  thermodynamic relationship of the two forms: monotropically related
[2]; Forms IV and VI compared
  thermodynamic stability relative to Form IV: more thermodynamically stable relative to Form IV
